{"source": "patent US20140011778A1", "about": "“2-METHYLENE-19,23,24-TRINOR-1ALPHA-HYDROXYVITAMIN D3” (Wisconsin Alumni Research Foundation, priority 2011, published 2014)", "key": {"[1]": {"target": "T1, Full-length recombinant rat receptor (vitamin D receptor) (Rattus norvegicus, UniProt P13053)", "T1 construct": "Full-length recombinant rat receptor was expressed in E. coli; histidine tag (C); made in house; host or cells: E. coli BL21(DE3) Codon Plus RIL", "T1 sequence (P13053 1-423)": "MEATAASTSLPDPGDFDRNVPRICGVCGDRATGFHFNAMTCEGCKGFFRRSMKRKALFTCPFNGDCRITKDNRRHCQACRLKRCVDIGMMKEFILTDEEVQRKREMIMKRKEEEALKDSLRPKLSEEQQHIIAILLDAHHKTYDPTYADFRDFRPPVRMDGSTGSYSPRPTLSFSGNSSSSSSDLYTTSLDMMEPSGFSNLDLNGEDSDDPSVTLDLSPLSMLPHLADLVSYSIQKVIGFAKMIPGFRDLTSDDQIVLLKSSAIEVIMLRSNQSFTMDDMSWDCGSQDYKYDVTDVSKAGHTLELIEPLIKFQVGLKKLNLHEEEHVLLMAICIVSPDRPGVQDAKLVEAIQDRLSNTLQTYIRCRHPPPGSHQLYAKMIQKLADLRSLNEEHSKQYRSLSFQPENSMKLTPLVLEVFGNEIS", "conditions": "comparison compound from an earlier filing; read-out: Competitive VDR Binding, Ki; cited from earlier work"}, "[2]": {"system": "Human promyelocytic leukemia (HL60) cells", "test": "HL-60 differentiation (nitro blue tetrazolium reduction)", "format": "cell-based", "conditions": "for HL-60 Differentiation (Relative Activity): (value for native hormone)/(value for working example), same assay; for EC50: Homo sapiens, 96 h, HL-60 cells into monocytes, 4 days", "experimental": "The study drugs were dissolved in ethanol and the concentrations determined using UV spectrophotometry. Serial dilutions were prepared so that a range of drug concentrations could be tested without changing the final concentration of ethanol (≦0.2%) present in the cell cultures.\nHuman promyelocytic leukemia (HL60) cells were grown in RPMI-1640 medium containing 10% fetal bovine serum. The cells were incubated at 37° C. in the presence of 5% CO2.\nHL60 cells were plated at 1.2×10^5 cells/ml. Eighteen hours after plating, cells in duplicate were treated with the drug. Four days later, the cells were harvested and a nitro blue tetrazolium reduction assay was performed (Collins et al., 1979; J. Exp. Med. 149:969-974). The percentage of differentiated cells was determined by counting a total of 200 cells and recording the number that contained intracellular black-blue formazan deposits. Verification of differentiation to monocytic cells was determined by measuring phagocytic activity (data not shown)."}, "[3]": {"system": "24-hydroxylase (24OHase) gene promoter", "test": "In vitro transcription assay (24OHase promoter-luciferase in ROS 17/2.8 cells)", "format": "cell-based", "conditions": "for 24OHase Transcription (Relative Activity): (value for native hormone)/(value for working example), same assay", "experimental": "Transcription activity was measured in ROS 17/2.8 (bone) cells that were stably transfected with a 24-hydroxylase (24OHase) gene promoter upstream of a luciferase reporter gene (Arbour et al., 1998). Cells were given a range of doses. Sixteen hours after dosing, the cells were harvested and luciferase activities were measured using a luminometer. RLU=relative luciferase units."}, "[4]": {"target": "T1, Full-length recombinant rat receptor (vitamin D receptor)", "test": "Vitamin D receptor competitive binding", "conditions": "recombinant rat VDR, 3H-1,25(OH)2D3 1 nM", "experimental": "Full-length recombinant rat receptor was expressed in E. coli BL21(DE3) Codon Plus RIL cells and purified to homogeneity using two different column chromatography systems. The first system was a nickel affinity resin that utilizes the C-terminal histidine tag on this protein. The protein that was eluted from this resin was further purified using ion exchange chromatography (S-Sepharose Fast Flow). Aliquots of the purified protein were quick frozen in liquid nitrogen and stored at −80° C. until use. For use in binding assays, the protein was diluted in TEDK50 (50 mM Tris, 1.5 mM EDTA, pH 7.4, 5 mM DTT, 150 mM KCl) with 0.1% Chaps detergent. The receptor protein and ligand concentration was optimized such that no more than 20% of the added radiolabeled ligand was bound to the receptor.\nUnlabeled ligands were dissolved in ethanol and the concentrations determined using UV spectrophotometry (1,25(OH)2D3: molar extinction coefficient=18,200 and λmax=265 nm; Analogs: molar extinction coefficient=42,000 and λmax=252 nm). Radiolabeled ligand (^3H-1,25(OH)2D3, ˜159 Ci/mmole) was added in ethanol at a final concentration of 1 nM.\nRadiolabeled and unlabeled ligands were added to 100 mcl of the diluted protein at a final ethanol concentration of ≦10%, mixed and incubated overnight on ice to reach binding equilibrium. […] Total binding was determined from the tubes containing only radiolabeled ligand."}, "[5]": {"system": "Sprague-Dawley rats", "test": "Intestinal calcium transport (everted gut sac)", "format": "in vivo, rat", "conditions": "for serosal calcium to mucosal calcium ratio: rat, at 780 pM (so in the source)", "experimental": "Male, weanling Sprague-Dawley rats were placed on Diet 11 (0.47% Ca) diet+AEK oil for one week followed by Diet 11 (0.02% Ca)+AEK oil for 3 weeks. The rats were then switched to a diet containing 0.47% Ca for one week followed by two weeks on a diet containing 0.02% Ca. Dose administration began during the last week on 0.02% calcium diet. Four consecutive intraperitoneal doses were given approximately 24 hours apart. Twenty-four hours after the last dose, blood was collected from the severed neck and the concentration of serum calcium determined as a measure of bone calcium mobilization. The first 10 cm of the intestine was also collected for intestinal calcium transport analysis using the everted gut sac method."}, "[6]": {"conditions": "ROS 17/2.8 cells, luciferase, 16 h, read-out: 24OHase Transcription, EC50"}}, "note": "Where two headings read alike, the source gives them in different places."}
{"smiles": "C=C1C(O)CC(=CC=C2CCCC3(C)C2CCC3C(C)CC)CC1O", "note": "[(20R)-2MbisP, 2-methylene-19-nor-(20R)-1α-hydroxybishomopregnacalciferol]", "values": [{"measurement": "Ki", "setting": "[1]", "result": 0.078, "unit": "nM"}]}
{"smiles": "C=C1[C@H](O)CC(=C/C=C2\\CCC[C@]3(C)[C@@H]([C@H](C)CC(C)C)CC[C@@H]23)C[C@H]1O", "note": "[RMB, (20R)-2-methylene-19,23,24-trinor-1α-hydroxyvitamin D3]", "values": [{"measurement": "HL-60 Differentiation (Relative Activity)", "setting": "[2]", "result": 0.0005}, {"measurement": "EC50", "setting": "[2]", "result": 6000, "unit": "nM"}, {"measurement": "less active than (20R)-2MbisP in differentiation of HL-60 cells", "setting": "[2]; ratio of relative activities 0.18/0.0005", "result": "approximately 360 times"}, {"measurement": "24OHase Transcription (Relative Activity)", "setting": "[3]", "result": 0.003}, {"measurement": "EC50", "setting": "[3]; [6]", "result": 100, "unit": "nM"}, {"measurement": "less active than (20R)-2MbisP in hydroxylase transcription", "setting": "[3]; ratio of relative activities 0.05/0.003", "result": "more than 16 times"}, {"measurement": "Ki", "setting": "[4]", "result": 4, "unit": "nM"}, {"measurement": "serosal calcium to mucosal calcium ratio", "setting": "[5]", "result": 0.9}]}
{"smiles": "C=C1/C(=C\\C=C2/CCC[C@]3(C)[C@@H]([C@H](C)CCCC(C)(C)O)CC[C@@H]23)C[C@@H](O)C[C@@H]1O", "note": "[native hormone, 1α,25-dihydroxyvitamin D3, reference compound]", "values": [{"measurement": "serosal calcium to mucosal calcium ratio", "setting": "[5]", "result": 4.1}]}
{"smiles": "C=C1C(O)CC(=CC=C2CCCC3(C)C2CCC3C(C)CCC)CC1O", "note": "[2MtrisP, 2-methylene-19-nor-(20S)-1α-hydroxytrishomopregnacalciferol]", "values": [{"measurement": "Ki", "setting": "[1]", "result": 0.075, "unit": "nM"}]}
{"smiles": "C=C1[C@H](O)CC(=C/C=C2\\CCC[C@]3(C)[C@@H]([C@@H](C)CC(C)C)CC[C@@H]23)C[C@H]1O", "note": "[SMB, (20S)-2-methylene-19,23,24-trinor-1α-hydroxyvitamin D3]", "values": [{"measurement": "HL-60 Differentiation (Relative Activity)", "setting": "[2]", "result": 0.08}, {"measurement": "EC50", "setting": "[2]", "result": 40, "unit": "nM"}, {"measurement": "less active than 2MtrisP in HL-60 differentiation, normalized against native hormone", "setting": "[2]; ratio of relative activities 1.2/0.08", "result": "≈ 15"}, {"measurement": "24OHase Transcription (Relative Activity)", "setting": "[3]", "result": 0.04}, {"measurement": "EC50", "setting": "[3]; FIG. 3, read-out: EC50 with respect to increasing transcription of the 24-hydroxylase gene", "result": 8000, "unit": "nM"}, {"measurement": "EC50", "setting": "[3]; [6]", "result": 8, "unit": "nM"}, {"measurement": "Ki", "setting": "[4]", "result": 0.4, "unit": "nM"}, {"measurement": "intestinal calcium transport activity lower than that of the native hormone", "setting": "[5]; 7020 pmol SMB similar to 87 pmol native hormone", "result": "approximately 80 times"}]}
